Laboratory results: ChEMBL document CHEMBL5236638, “Optimization of First-in-Class Dual-Acting FFAR1/FFAR4 Allosteric Modulators with Novel Mode of Action” (ACS Med Chem Lett, 2022)

Tests used:
Type in all cases: cell-based
[1] = biological target: T1, Free fatty acid receptor 4 (Homo sapiens, UniProt Q5NUL3); test: Agonist activity at N-terminal FLAG tagged human FFAR4 transfected in African green monkey COS-7 cells assessed as accumulation of inositol phosphate incubated for 90 mins by TopCount NXT counter based analysis
T1 sequence (Q5NUL3 whole entry): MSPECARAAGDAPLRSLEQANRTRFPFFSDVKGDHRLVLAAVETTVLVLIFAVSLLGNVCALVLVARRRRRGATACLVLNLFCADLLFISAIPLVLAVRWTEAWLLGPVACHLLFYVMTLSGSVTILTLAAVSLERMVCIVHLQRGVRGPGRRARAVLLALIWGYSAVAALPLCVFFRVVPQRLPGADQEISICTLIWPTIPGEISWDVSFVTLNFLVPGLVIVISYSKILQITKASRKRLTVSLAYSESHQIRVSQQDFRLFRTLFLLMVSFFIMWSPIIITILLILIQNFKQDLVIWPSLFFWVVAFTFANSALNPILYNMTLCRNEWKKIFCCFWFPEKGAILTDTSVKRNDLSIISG

[2] = biological target: T2, Free fatty acid receptor 4 (Homo sapiens) (UniProt Q5NUL3); test: Agonist activity at N-terminal FLAG tagged human FFAR4 transfected in African green monkey COS-7 cells assessed as accumulation of inositol phosphate at 10 uM incubated for 90 mins by TopCount NXT counter based analysis relative to control
T2 sequence (whole entry): T1 sequence (Q5NUL3 whole entry)

[3] = biological target: Free fatty acid receptor 1 (Homo sapiens, UniProt O14842); test: Agonist activity at N-terminal FLAG tagged human FFAR1 transfected in African green monkey COS-7 cells assessed as accumulation of inositol phosphate incubated for 90 mins by TopCount NXT counter based analysis
Sequence of Free fatty acid receptor 1 (O14842 whole entry): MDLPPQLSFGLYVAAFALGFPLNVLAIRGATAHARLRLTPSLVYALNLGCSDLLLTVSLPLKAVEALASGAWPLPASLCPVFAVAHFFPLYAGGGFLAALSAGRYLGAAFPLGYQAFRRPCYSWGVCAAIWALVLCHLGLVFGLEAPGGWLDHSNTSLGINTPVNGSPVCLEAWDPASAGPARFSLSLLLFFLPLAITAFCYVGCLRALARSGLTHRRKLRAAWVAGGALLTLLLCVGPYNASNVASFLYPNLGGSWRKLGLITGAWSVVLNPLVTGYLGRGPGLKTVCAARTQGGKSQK

| Structure (SMILES) | EC50 [1] | Emax ([2]; filed as agonist) | EC50 [3] | Emax [2] |
| --- | --- | --- | --- | --- |
| Cc1cc(OCc2nc(N)nc(Nc3ccc(C)c(Cl)c3)n2)cc(N2CCCC2=O)c1 | 0.6 µM | 50% | 0.02 µM | – |
| COc1ccc(F)cc1CCNc1nc(N)nc(COc2cc(C)cc(N3CCCC3=O)c2)n1 | 0.134 µM | – | 0.469 µM | 30% |
| CCc1cc(=O)oc2cc(OCc3nc(N)nc(Nc4ccc(C)cc4)n3)ccc12 | 1.32 µM | – | 2.64 µM | 37% |
| COc1ccc(Cl)cc1CCNc1nc(N)nc(COc2cc(C)cc(N3CCCC3=O)c2)n1 | 0.053 µM | – | 0.054 µM | 29% |
| Cc1cc(Nc2nc(N)nc(COc3ccc4c(C)cc(=O)oc4c3)n2)ccc1Cl | 0.6 µM | 48% | 0.24 µM | – |
| Cc1cc(OCc2nc(N)nc(NCCc3c(F)cccc3F)n2)cc(N2CCCC2=O)c1 | 0.009 µM | 46% | 0.003 µM | – |
| Cc1cc(OCc2nc(N)nc(NCCc3ccccc3)n2)cc(N2CCCC2=O)c1 | 0.033 µM | – | 0.025 µM | 38% |
| Cc1ccc(Nc2nc(N)nc(COc3cccc(N4CCCC4=O)c3F)n2)cc1Cl | – | – | 14.1 µM | – |
| COc1ccc(OCc2nc(N)nc(Nc3ccc(C)c(Cl)c3)n2)cc1N1CCCC1=O | 31.4 µM | 53% | 20.2 µM | – |
| Cc1cc(OCc2nc(N)nc(NCCc3ccccc3C(F)(F)F)n2)cc(N2CCCC2=O)c1 | 0.01 µM | – | 0.012 µM | 38% |
| Cc1cc(OCc2nc(N)nc(NCCc3cccc(Cl)c3Cl)n2)cc(N2CCCC2=O)c1 | 0.009 µM | – | 0.003 µM | 31% |
| Cc1ccc(Nc2nc(N)nc(COc3cc(N4CCCC4=O)ccc3F)n2)cc1Cl | 13.8 µM | – | 33.1 µM | 27% |
| Cc1cc(=O)oc2cc(OCc3nc(N)nc(Nc4ccc(Cl)cc4)n3)ccc12 | – | – | 32.5 µM | – |
| Cc1ccc(Nc2nc(N)nc(COc3ccc4c5c(c(=O)oc4c3)CCC5)n2)cc1 | – | – | 2.22 µM | – |
| Cc1cc(OCc2nc(N)nc(NCCc3cc(Cl)cc(Cl)c3)n2)cc(N2CCCC2=O)c1 | 0.007 µM | 49% | 0.004 µM | – |
| Cc1cc(OCc2nc(N)nc(NCCc3ccc(Cl)c(Cl)c3)n2)cc(N2CCCC2=O)c1 | 0.055 µM | – | 0.016 µM | 23% |
| Cc1ccc(Nc2nc(N)nc(COc3cc(N4CCCC4=O)ccc3C)n2)cc1Cl | 18.2 µM | 43% | 7.45 µM | – |
| Cc1cc(OCc2nc(N)nc(NCCc3ccccc3F)n2)cc(N2CCCC2=O)c1 | – | – | 0.011 µM | – |
| Cc1cc(OCc2nc(N)nc(NCCc3ccc(Cl)cc3Cl)n2)cc(N2CCCC2=O)c1 | 0.025 µM | – | 0.044 µM | 18% |

| Structure (SMILES) | EC50 [1] | Emax ([2]; filed as agonist) | EC50 [3] | Emax [2] |
| --- | --- | --- | --- | --- |
| Cc1cc(OCc2nc(N)nc(NCCc3c(C)cccc3C)n2)cc(N2CCCC2=O)c1 | 0.072 µM | 44% | 0.025 µM | – |
| Cc1ccc(Nc2nc(N)nc(COc3cc(Cl)cc(N4CCCC4=O)c3)n2)cc1Cl | 0.15 µM | 43% | 0.16 µM | – |
| Cc1ccc(Nc2nc(N)nc(COc3ccc4c(C(F)F)cc(=O)oc4c3)n2)cc1 | 1.57 µM | – | 3.18 µM | 27% |
| COc1ccc(CCNc2nc(N)nc(COc3cc(C)cc(N4CCCC4=O)c3)n2)cc1 | 0.377 µM | – | 1.46 µM | 34% |
| Cc1ccc(Nc2nc(N)nc(COc3cc(N4CCCC4=O)ccc3C(F)(F)F)n2)cc1Cl | 11.9 µM | 41% | 20.1 µM | – |
| Cc1ccc(Nc2nc(N)nc(COc3ccc4c(C)cc(=O)oc4c3)n2)cc1C | – | – | 0.21 µM | – |
| Cc1cc(=O)oc2cc(OCc3nc(N)nc(Nc4ccc(F)cc4)n3)ccc12 | – | – | 18.3 µM | – |
| Cc1cc(OCc2nc(N)nc(NCCc3ccccc3OC(F)F)n2)cc(N2CCCC2=O)c1 | 0.178 µM | – | 0.108 µM | 30% |
| COc1cc(OCc2nc(N)nc(Nc3ccc(C)c(Cl)c3)n2)cc(N2CCCC2=O)c1 | 0.6 µM | 43% | 1.8 µM | – |
| Cc1ccc(Nc2nc(N)nc(COc3cccc(N4CCCS4(=O)=O)c3)n2)cc1Cl | – | – | 9.7 µM | – |
| Cc1cc(OCc2nc(N)nc(NCCc3ccc(C)cc3C)n2)cc(N2CCCC2=O)c1 | 0.093 µM | – | 0.071 µM | 37% |
| Cc1ccc(Nc2nc(N)nc(COc3cc(F)cc(N4CCCC4=O)c3)n2)cc1Cl | 1.2 µM | 47% | 1.8 µM | – |
| Cc1ccc(Nc2nc(N)nc(COc3cc(C#N)cc(N4CCCC4=O)c3)n2)cc1Cl | 14.3 µM | – | 4.17 µM | 26% |
| Cc1cc(OCc2nc(N)nc(NCCc3ccc(Cl)c(C)c3)n2)cc(N2CCCC2=O)c1 | 0.004 µM | – | 0.014 µM | 30% |
| Cc1cc(=O)oc2cc(OCc3nc(N)nc(Nc4ccc(Cl)c(Cl)c4)n3)ccc12 | 0.36 µM | – | 0.78 µM | – |
| Cc1cc(OCc2nc(N)nc(NCCc3cccc(S(F)(F)(F)(F)F)c3)n2)cc(N2CCCC2=O)c1 | – | 95% | 0.032 µM | – |
| CCc1ccc(Nc2nc(N)nc(COc3ccc4c(C)cc(=O)oc4c3)n2)cc1Cl | 0.56 µM | 48% | 0.16 µM | – |
| Cc1cc(=O)oc2cc(OCc3nc(N)nc(Nc4ccc(C5CC5)cc4)n3)ccc12 | – | – | 0.7 µM | – |
| Cc1cc(OCc2nc(N)nc(NCCc3ccccc3C)n2)cc(N2CCCC2=O)c1 | 0.017 µM | – | 0.011 µM | 35% |

| Structure (SMILES) | EC50 [1] | Emax ([2]; filed as agonist) | EC50 [3] | Emax [2] |
| --- | --- | --- | --- | --- |
| CCCc1cc(=O)oc2cc(OCc3nc(N)nc(Nc4ccc(C)cc4)n3)ccc12 | – | – | 2.9 µM | – |
| Cc1cc(OCc2nc(N)nc(NCCc3cccc(C#N)c3)n2)cc(N2CCCC2=O)c1 | 0.552 µM | – | 0.831 µM | 17% |
| Cc1cc(OCc2nc(N)nc(NCCc3cc(F)ccc3F)n2)cc(N2CCCC2=O)c1 | 0.005 µM | – | 0.016 µM | 36% |
| Cc1ccc(Nc2nc(N)nc(COc3cccc(N4CCCCC4=O)c3)n2)cc1Cl | 16.6 µM | 66% | 22.4 µM | – |
| Cc1cc(OCc2nc(N)nc(NCC3(c4cccc(Cl)c4)CC3)n2)cc(N2CCCC2=O)c1 | – | – | 0.048 µM | – |
| COc1ccccc1CCNc1nc(N)nc(COc2cc(C)cc(N3CCCC3=O)c2)n1 | 0.014 µM | – | 0.034 µM | 23% |
| Cc1cc(OCc2nc(N)nc(NCCc3ccc(Cl)cc3)n2)cc(N2CCCC2=O)c1 | – | – | 0.193 µM | – |
| Cc1ccc(Nc2nc(N)nc(COc3ccc(Cl)c(N4CCCC4=O)c3)n2)cc1Cl | 3.03 µM | 42% | 2.45 µM | – |
| Cc1cc(OCc2nc(N)nc(NCCc3cc(C)ccc3F)n2)cc(N2CCCC2=O)c1 | 0.386 µM | 40% | 0.003 µM | – |
| Cc1cccc(CCNc2nc(N)nc(COc3cc(C)cc(N4CCCC4=O)c3)n2)c1 | – | – | 0.007 µM | – |
| Cc1cc(=O)oc2cc(OCc3nc(N)nc(Nc4ccc5c(c4)COC5)n3)ccc12 | – | – | 1.33 µM | – |
| Cc1cc(=O)oc2cc(OCc3nc(N)nc(Nc4cccc(Cl)c4)n3)ccc12 | – | – | 1.11 µM | – |
| Cc1ccc(Nc2nc(N)nc(COc3cc(OC(F)(F)F)cc(N4CCCC4=O)c3)n2)cc1Cl | 2.19 µM | – | – | 38% |
| Cc1cc(OCc2nc(N)nc(NCC(c3c(F)cccc3F)N(C)C)n2)cc(N2CCCC2=O)c1 (configuration not stated) | – | – | 7.43 µM | – |
| Cc1cc(=O)oc2cc(OCc3nc(N)nc(Nc4ccc5ccccc5c4)n3)ccc12 | – | – | 0.7 µM | – |
| Cc1cc(=O)oc2cc(OCc3nc(N)nc(NCc4ccc(F)cc4)n3)ccc12 | – | – | 7.82 µM | – |
| Cc1ccc(Nc2nc(N)nc(COc3cc(N4CCCC4=O)cc(C(C)(C)C)c3)n2)cc1Cl | 0.64 µM | – | – | – |
| Cc1ccc(Nc2nc(N)nc(COc3cc(N4CCCC4=O)cc(C(F)(F)F)c3)n2)cc1Cl | – | – | 3.19 µM | – |
